Laboratory results published in patent US12319672B2, “Alpha-D-galactopyranoside derivatives” (Idorsia Pharmaceuticals Ltd, priority 2019, dated 2025).

Columns and labels:
human Gal-3 (hGal-3) = human Gal-3 (hGal-3) (Homo sapiens (Human), UniProt P17931); assay: Competitive binding assay: binding of biotinylated hGal-3 to microplate-adsorbed asialofetuin (ASF); conditions: Activity on hGal-3; mean values of several measurements
Procedure, shortened: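 For hGal-1, a variant with all six cysteines replaced by serines is preferred. Either galectin, biotinylated at 300-1000 ng/mL, competes with compound for microplate-bound ASF over 3 h at 4° C; peroxidase/ABTS detection gives IC50, averaged.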

human Gal-1 (hGal-1) = assay: Competitive binding assay: binding of biotinylated hGal-1 to microplate-adsorbed asialofetuin (ASF); conditions: Activities on hGal-1; mean values of several measurements
Procedure, shortened: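 Spectrophotometric readout (streptavidin-peroxidase, ABTS) of biotinylated galectin retained on ASF-coated wells. Biotinylated hGal-1 or hGal-3, 300-1000 ng/mL, co-incubated with test compound 3 h at 4° C, then washed. Mean IC50 from repeat runs.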

human Gal-1 (hGal-1), sequence (P09382 2-135 limits assumed): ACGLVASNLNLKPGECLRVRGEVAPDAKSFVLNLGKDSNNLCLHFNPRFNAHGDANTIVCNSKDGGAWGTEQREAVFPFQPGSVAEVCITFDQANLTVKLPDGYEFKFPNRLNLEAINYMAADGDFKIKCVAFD
human Gal-3 (hGal-3), sequence (P17931 whole entry): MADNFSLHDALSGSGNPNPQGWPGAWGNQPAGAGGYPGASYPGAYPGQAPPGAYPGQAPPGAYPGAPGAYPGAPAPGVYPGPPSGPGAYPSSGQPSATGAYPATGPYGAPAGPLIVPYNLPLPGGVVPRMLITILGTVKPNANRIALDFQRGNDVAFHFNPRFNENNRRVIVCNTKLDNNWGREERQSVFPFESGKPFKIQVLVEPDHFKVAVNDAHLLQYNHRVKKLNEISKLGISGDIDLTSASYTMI

| SMILES | IC50 (human Gal-3 (hGal-3)) [nM] | IC50 (human Gal-1 (hGal-1)) [nM] |
| --- | --- | --- |
| CO[C@@H]1[C@@H](n2cc(-c3cc(F)c(F)c(F)c3)nn2)[C@@H](O)[C@@H](CO)O[C@@H]1Cc1cn(C2CCN(C(=O)NC(C)(C)C)CC2)nn1 [Example 4.08, N-(tert-butyl)-4-(4-(((2R,3R,4S,5R,6R)-5-hydroxy-6-(hydroxymethyl)-3-methoxy-4-(4-(3,4,5-trifluorophenyl)-1H-1,2,3-triazol-1-yl)tetrahydro-2H-pyran-2-yl)methyl)-1H-1,2,3-triazol-1-yl)piperidine-1-carboxamide] | 10 | 67 |
| CCCS(=O)(=O)N1CCC(n2cc(C[C@H]3O[C@H](CO)[C@H](O)[C@H](n4cc(-c5cc(F)c(F)c(F)c5)nn4)[C@H]3OC)nn2)CC1 [Example 4.09, (2R,3R,4S,5R,6R)-2-(hydroxymethyl)-5-methoxy-6-((1-(1-(propylsulfonyl)piperidin-4-yl)-1H-1,2,3-triazol-4-yl)methyl)-4-(4-(3,4,5-trifluorophenyl)-1H-1,2,3-triazol-1-yl)tetrahydro-2H-pyran-3-ol] | 13 | 100 |
| CO[C@@H]1[C@@H](n2cc(-c3cc(F)c(F)c(F)c3)nn2)[C@@H](O)[C@@H](CO)O[C@H]1Cc1cn(C2CCN(C(=O)OC(C)(C)C)CC2)nn1 [Example 4.11, tert-butyl 4-(4-(((2S,3R,4S,5R,6R)-5-hydroxy-6-(hydroxymethyl)-3-methoxy-4-(4-(3,4,5-trifluorophenyl)-1H-1,2,3-triazol-1-yl)tetrahydro-2H-pyran-2-yl)methyl)-1H-1,2,3-triazol-1-yl)piperidine-1-carboxylate] | 1200 | 3030 |
| CO[C@@H]1[C@@H](n2cc(-c3cc(F)c(F)c(F)c3)nn2)[C@@H](O)[C@@H](CO)O[C@@H]1Cc1cn(C2CCN(C(=O)OCc3ccccc3)CC2)nn1 [Example 4.13, benzyl 4-(4-(((2R,3R,4S,5R,6R)-5-hydroxy-6-(hydroxymethyl)-3-methoxy-4-(4-(3,4,5-trifluorophenyl)-1H-1,2,3-triazol-1-yl)tetrahydro-2H-pyran-2-yl)methyl)-1H-1,2,3-triazol-1-yl)piperidine-1-carboxylate] | 17 | 340 |
| CO[C@@H]1[C@@H](n2cc(-c3cc(F)c(F)c(F)c3)nn2)[C@@H](O)[C@@H](CO)O[C@@H]1Cc1cn(C2CCN([S+]([O-])C(C)(C)C)CC2)nn1 (stereo partly drawn) [Example 4.19, (2R,3R,4S,5R,6R)-6-((1-(1-(RS-tert-butylsulfinyl)piperidin-4-yl)-1H-1,2,3-triazol-4-yl)methyl)-2-(hydroxymethyl)-5-methoxy-4-(4-(3,4,5-trifluorophenyl)-1H-1,2,3-triazol-1-yl)tetrahydro-2H-pyran-3-ol] | 34 | 1000 |
| CO[C@@H]1[C@@H](n2cc(-c3cc(F)c(F)c(F)c3)nn2)[C@@H](O)[C@@H](CO)O[C@@H]1Cn1cc(C2CCN(C(=O)OCc3ccccc3)CC2)nn1 [Example 4.20, benzyl 4-(1-(((2R,3R,4S,5R,6R)-5-hydroxy-6-(hydroxymethyl)-3-methoxy-4-(4-(3,4,5-trifluorophenyl)-1H-1,2,3-triazol-1-yl)tetrahydro-2H-pyran-2-yl)methyl)-1H-1,2,3-triazol-4-yl)piperidine-1-carboxylate] | 21 | 520 |
| CO[C@@H]1[C@@H](n2cc(-c3cc(F)c(F)c(F)c3)nn2)[C@@H](O)[C@@H](CO)O[C@@H]1Cn1cc(C2CCN(S(=O)(=O)C(C)C)CC2)nn1 [Example 4.22, (2R,3R,4S,5R,6R)-2-(hydroxymethyl)-6-((4-(1-(isopropylsulfonyl)piperidin-4-yl)-1H-1,2,3-triazol-1-yl)methyl)-5-methoxy-4-(4-(3,4,5-trifluorophenyl)-1H-1,2,3-triazol-1-yl)tetrahydro-2H-pyran-3-ol] | 45 | 770 |
| CO[C@@H]1[C@@H](n2cc(-c3cc(F)c(F)c(F)c3)nn2)[C@@H](O)[C@@H](CO)O[C@@H]1Cn1cc(C2CCN(S(=O)(=O)c3ccc(C)cc3)CC2)nn1 [Example 4.23, (2R,3R,4S,5R,6R)-2-(hydroxymethyl)-5-methoxy-6-((4-(1-tosylpiperidin-4-yl)-1H-1,2,3-triazol-1-yl)methyl)-4-(4-(3,4,5-trifluorophenyl)-1H-1,2,3-triazol-1-yl)tetrahydro-2H-pyran-3-ol] | 38 | 1230 |

Other lines, results leading:

| IC50 (human Gal-3 (hGal-3)) [nM] | IC50 (human Gal-1 (hGal-1)) [nM] | SMILES |
| --- | --- | --- |
| 52 | 160 | CO[C@@H]1[C@@H](n2cc(-c3cc(F)c(F)c(F)c3)nn2)[C@@H](O)[C@@H](CO)O[C@@H]1Cc1cn(C2CCN(C(C)=O)CC2)nn1 [Example 4.06, 1-(4-(4-(((2R,3R,4S,5R,6R)-5-hydroxy-6-(hydroxymethyl)-3-methoxy-4-(4-(3,4,5-trifluorophenyl)-1H-1,2,3-triazol-1-yl)tetrahydro-2H-pyran-2-yl)methyl)-1H-1,2,3-triazol-1-yl)piperidin-1-yl)ethan-1-one] |
| 12 | 100 | CO[C@@H]1[C@@H](n2cc(-c3cc(F)c(F)c(F)c3)nn2)[C@@H](O)[C@@H](CO)O[C@@H]1Cc1cn(C2CCN(S(C)(=O)=O)CC2)nn1 [Example 4.07, (2R,3R,4S,5R,6R)-2-(hydroxymethyl)-5-methoxy-6-((1-(1-(methylsulfonyl)piperidin-4-yl)-1H-1,2,3-triazol-4-yl)methyl)-4-(4-(3,4,5-trifluorophenyl)-1H-1,2,3-triazol-1-yl)tetrahydro-2H-pyran-3-ol] |
| 25 | 270 | CO[C@@H]1[C@@H](n2cc(-c3cc(F)c(F)c(F)c3)nn2)[C@@H](O)[C@@H](CO)O[C@@H]1Cc1cn(C2CCN(S(=O)(=O)C(C)C)CC2)nn1 [Example 4.10, (2R,3R,4S,5R,6R)-2-(hydroxymethyl)-6-((1-(1-(isopropylsulfonyl)piperidin-4-yl)-1H-1,2,3-triazol-4-yl)methyl)-5-methoxy-4-(4-(3,4,5-trifluorophenyl)-1H-1,2,3-triazol-1-yl)tetrahydro-2H-pyran-3-ol] |
| 700 | 3040 | CO[C@@H]1[C@@H](n2cc(-c3cc(F)c(F)c(F)c3)nn2)[C@@H](O)[C@@H](CO)O[C@H]1Cc1cn(C2CCN(C(C)=O)CC2)nn1 [Example 4.12, 1-(4-(4-(((2S,3R,4S,5R,6R)-5-hydroxy-6-(hydroxymethyl)-3-methoxy-4-(4-(3,4,5-trifluorophenyl)-1H-1,2,3-triazol-1-yl)tetrahydro-2H-pyran-2-yl)methyl)-1H-1,2,3-triazol-1-yl)piperidin-1-yl)ethan-1-one] |
| 36 | 3880 | CO[C@@H]1[C@@H](n2cc(-c3cc(F)c(F)c(F)c3)nn2)[C@@H](O)[C@@H](CO)O[C@@H]1Cc1cn(C2CCSCC2)nn1 [Example 4.14, (2R,3R,4S,5R,6R)-2-(hydroxymethyl)-5-methoxy-6-((1-(tetrahydro-2H-thiopyran-4-yl)-1H-1,2,3-triazol-4-yl)methyl)-4-(4-(3,4,5-trifluorophenyl)-1H-1,2,3-triazol-1-yl)tetrahydro-2H-pyran-3-ol] |
| 210 | 4900 | CO[C@@H]1[C@@H](n2cc(-c3cc(F)c(F)c(F)c3)nn2)[C@@H](O)[C@@H](CO)O[C@@H]1Cc1cn(C2CC[S+]([O-])CC2)nn1 (stereo partly drawn) [Example 4.15, 4-(4-(((2R,3R,4S,5R,6R)-5-hydroxy-6-(hydroxymethyl)-3-methoxy-4-(4-(3,4,5-trifluorophenyl)-1H-1,2,3-triazol-1-yl)tetrahydro-2H-pyran-2-yl)methyl)-1H-1,2,3-triazol-1-yl)tetrahydro-2H-thiopyran 1-oxide] |
| 35 | 670 | CO[C@@H]1[C@@H](n2cc(-c3cc(F)c(F)c(F)c3)nn2)[C@@H](O)[C@@H](CO)O[C@@H]1Cc1cn(C2CCS(=O)(=O)CC2)nn1 [Example 4.16, 4-(4-(((2R,3R,4S,5R,6R)-5-hydroxy-6-(hydroxymethyl)-3-methoxy-4-(4-(3,4,5-trifluorophenyl)-1H-1,2,3-triazol-1-yl)tetrahydro-2H-pyran-2-yl)methyl)-1H-1,2,3-triazol-1-yl)tetrahydro-2H-thiopyran 1,1-dioxide] |
| 25 | 170 | CO[C@@H]1[C@@H](n2cc(-c3cc(F)c(F)c(F)c3)nn2)[C@@H](O)[C@@H](CO)O[C@@H]1Cc1cn(C2CCS(=N)(=O)CC2)nn1 (stereo partly drawn) [Example 4.17, 4-(4-(((2R,3R,4S,5R,6R)-5-hydroxy-6-(hydroxymethyl)-3-methoxy-4-(4-(3,4,5-trifluorophenyl)-1H-1,2,3-triazol-1-yl)tetrahydro-2H-pyran-2-yl)methyl)-1H-1,2,3-triazol-1-yl)-1-iminohexahydro-1l6-thiopyran 1-oxide] |
| 57 | 240 | CN=S1(=O)CCC(n2cc(C[C@H]3O[C@H](CO)[C@H](O)[C@H](n4cc(-c5cc(F)c(F)c(F)c5)nn4)[C@H]3OC)nn2)CC1 (stereo partly drawn) [Example 4.18, 4-(4-(((2R,3R,4S,5R,6R)-5-hydroxy-6-(hydroxymethyl)-3-methoxy-4-(4-(3,4,5-trifluorophenyl)-1H-1,2,3-triazol-1-yl)tetrahydro-2H-pyran-2-yl)methyl)-1H-1,2,3-triazol-1-yl)-1-(methylimino)hexahydro-1l6-thiopyran 1-oxide] |
| 19 | 86 | CO[C@@H]1[C@@H](n2cc(-c3cc(F)c(F)c(F)c3)nn2)[C@@H](O)[C@@H](CO)O[C@@H]1Cc1cn(C2CCN(S(=N)(=O)C(C)(C)C)CC2)nn1 (stereo partly drawn) [Example 4.21, (2R,3R,4S,5R,6R)-2-(hydroxymethyl)-5-methoxy-6-((1-(1-(2-methylpropan-2-ylsulfonimidoyl)piperidin-4-yl)-1H-1,2,3-triazol-4-yl)methyl)-4-(4-(3,4,5-trifluorophenyl)-1H-1,2,3-triazol-1-yl)tetrahydro-2H-pyran-3-ol] |
